From patent US10780090B2, “Heteroaryl compounds useful as inhibitors of SUMO activating enzyme” (Millennium Pharmaceuticals, Inc., priority 2014, dated 2020)
pIC50: −log10 of the molar value.

Target: recombinant human SAE enzyme (Homo sapiens (Human), UniProt Q9UBT2)
Test: SAE HTRF enzyme assay
Format: biochemical
Details: for pIC50: class symbols A/B/C; for IC50: SAE inhibition, class symbols, legend in nM; for inhibition at 0.111 µM: read-out: Percent Inhibition
How it was run: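 First, recombinant human SAE (0.11 nM) transfers Sumo-Flag onto Ubc9-GST using 0.5 μM ATP for 105 min at 24° C. Next, EDTA-containing detection buffer with labelled anti-Flag and anti-GST antibodies is added for 2 h. Finally, FRET is quantified and percent inhibition or IC50 derived.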

[1] = SAE inhibition at compound concentration 0.111 μM

recombinant human SAE enzyme, sequence (Q9UBT2 whole entry): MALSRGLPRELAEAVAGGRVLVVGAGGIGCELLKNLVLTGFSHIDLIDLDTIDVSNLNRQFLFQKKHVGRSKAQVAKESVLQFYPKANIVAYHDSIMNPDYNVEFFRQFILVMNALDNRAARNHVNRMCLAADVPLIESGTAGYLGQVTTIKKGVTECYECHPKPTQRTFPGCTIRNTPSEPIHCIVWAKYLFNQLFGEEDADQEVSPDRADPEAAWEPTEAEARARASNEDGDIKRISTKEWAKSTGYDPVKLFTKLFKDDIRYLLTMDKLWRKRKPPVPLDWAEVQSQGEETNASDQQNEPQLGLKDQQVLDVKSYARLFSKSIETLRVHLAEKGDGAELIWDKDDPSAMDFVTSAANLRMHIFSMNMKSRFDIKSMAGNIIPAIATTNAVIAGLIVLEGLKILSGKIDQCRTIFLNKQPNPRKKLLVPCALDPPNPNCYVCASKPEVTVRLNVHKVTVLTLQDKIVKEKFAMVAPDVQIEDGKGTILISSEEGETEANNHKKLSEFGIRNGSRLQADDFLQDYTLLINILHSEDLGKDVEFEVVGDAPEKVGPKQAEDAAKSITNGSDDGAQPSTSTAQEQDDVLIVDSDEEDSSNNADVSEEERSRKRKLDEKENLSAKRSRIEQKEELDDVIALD
recombinant human SAE enzyme, sequence (Q9UBE0 whole entry partner): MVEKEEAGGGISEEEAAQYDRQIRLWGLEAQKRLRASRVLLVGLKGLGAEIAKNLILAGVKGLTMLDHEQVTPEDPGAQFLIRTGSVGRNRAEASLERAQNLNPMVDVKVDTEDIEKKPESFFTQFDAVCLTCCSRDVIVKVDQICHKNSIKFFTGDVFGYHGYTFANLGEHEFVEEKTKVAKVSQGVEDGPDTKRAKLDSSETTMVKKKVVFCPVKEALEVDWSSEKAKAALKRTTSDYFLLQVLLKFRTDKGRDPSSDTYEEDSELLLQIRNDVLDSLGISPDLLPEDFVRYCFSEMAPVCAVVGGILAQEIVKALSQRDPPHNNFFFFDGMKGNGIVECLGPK

| Compound | Percent Inhibition (Concentration 0.111 μM) | pIC50 | Percent Inhibition [1] [%] | IC50 [nM] | inhibition at 0.111 µM (Concentration 0.111 μM) [%] |
| --- | --- | --- | --- | --- | --- |
| Cc1sc(C(=O)c2cncnc2N[C@@H]2C[C@H](COS(N)(=O)=O)[C@@H](O)C2)cc1[C@H](N)c1cccc(Cl)c1 (single isomer, unassigned) [I-6a, [(1R,2S,4R)-4-{[5-({4-[(R)-amino(3-chlorophenyl)methyl]-5-methyl-2-thienyl}carbonyl)pyrimidin-4-yl]amino}-2-hydroxycyclopentyl]methyl sulfamate or [(1R,2S,4R)-4-{[5-({4-[(S)-amino(3-chlorophenyl)methyl]-5-methyl-2-thienyl}carbonyl)pyrimidin-4-yl]amino}-2-hydroxycyclopentyl]methyl sulfamate] | 98 | > 8.00 |  |  |  |
| NS(=O)(=O)OC[C@H]1C[C@@H](Nc2ncncc2C(=O)c2cc([C@H]3OCCc4ccc(Cl)cc43)cs2)C[C@@H]1O (mixture of isomers) [I-261, [(1R,2S,4R)-4-{[5-({4-[(1R)-7-chloro-3,4-dihydro-1H-isochromen-1-yl]-2-thienyl}carbonyl)pyrimidin-4-yl]amino}-2-hydroxycyclopentyl]methyl sulfamate and [(1R,2S,4R)-4-{[5-({4-[(1S)-7-chloro-3,4-dihydro-1H-isochromen-1-yl]-2-thienyl}carbonyl)pyrimidin-4-yl]amino}-2-hydroxycyclopentyl]methyl sulfamate] | 99 | > 8.00 |  |  |  |
| CN1CCc2ccc(Cl)cc2[C@@H]1c1csc(C(=O)c2cncnc2N[C@@H]2C[C@H](COS(N)(=O)=O)[C@@H](O)C2)c1 (single isomer, unassigned) [I-307a, [(1R,2S,4R)-4-{[5-({4-[(1R)-7-chloro-2-methyl-1,2,3,4-tetrahydroisoquinolin-1-yl]-2-thienyl}carbonyl)pyrimidin-4-yl]amino}-2-hydroxycyclopentyl]methyl sulfamate or [(1R,2S,4R)-4-{[5-({4-[(1S)-7-chloro-2-methyl-1,2,3,4-tetrahydroisoquinolin-1-yl]-2-thienyl}carbonyl)pyrimidin-4-yl]amino}-2-hydroxycyclopentyl]methyl sulfamate] |  |  | 45 | 100 to 1000 |  |
| NS(=O)(=O)OC[C@H]1C[C@@H](Nc2ncncc2C(=O)c2cc(COc3cccc(Cl)c3Cl)cs2)C[C@@H]1O [I-180, [(1R,2S,4R)-4-{[5-({4-[(2,3-dichlorophenoxy)methyl]-2-thienyl}carbonyl)pyrimidin-4-yl]amino}-2-hydroxycyclopentyl]methyl sulfamate] |  | 7.00 to 8.00 |  |  | 84 |
| CC(O)(c1cccc(Cl)c1)c1csc(C(=O)c2cncnc2N[C@@H]2C[C@H](COS(N)(=O)=O)[C@@H](O)C2)c1 (single isomer, unassigned) [I-5b, [(1R,2S,4R)-4-{[5-({4-[(1R)-1-(3-chlorophenyl)-1-hydroxyethyl]-2-thienyl}carbonyl)pyrimidin-4-yl]amino}-2-hydroxycyclopentyl]methyl sulfamate or [(1R,2S,4R)-4-{[5-({4-[(1S)-1-(3-chlorophenyl)-1-hydroxyethyl]-2-thienyl}carbonyl)pyrimidin-4-yl]amino}-2-hydroxycyclopentyl]methyl sulfamate] | 100 | > 8.00 |  |  |  |
| CC(O)(c1cccc(Cl)c1)c1cc(C(=O)c2cncnc2N[C@@H]2C[C@H](COS(N)(=O)=O)[C@@H](O)C2)sc1Cl (single isomer, unassigned) [I-102a, [(1R,2S,4R)-4-{[5-({5-chloro-4-[(1R)-1-(3-chlorophenyl)-1-hydroxyethyl]-2-thienyl}carbonyl)pyrimidin-4-yl]amino}-2-hydroxycyclopentyl]methyl sulfamate or [(1R,2S,4R)-4-{[5-({5-chloro-4-[(1S)-1-(3-chlorophenyl)-1-hydroxyethyl]-2-thienyl}carbonyl)pyrimidin-4-yl]amino}-2-hydroxycyclopentyl]methyl sulfamate] | 36 | 6.00 to 7.00 |  |  |  |
| C[C@](N)(c1cccc(Cl)c1)c1csc(C(=O)c2cncnc2N[C@@H]2C[C@H](COS(N)(=O)=O)[C@@H](O)C2)c1 (single isomer, unassigned) [I-12a, [(1R,2S,4R)-4-{[5-({4-[(1S)-1-amino-1-(3-chlorophenyl)ethyl]-2-thienyl}carbonyl)pyrimidin-4-yl]amino}-2-hydroxycyclopentyl]methyl sulfamate or [(1R,2S,4R)-4-{[5-({4-[(1R)-1-amino-1-(3-chlorophenyl)ethyl]-2-thienyl}carbonyl)pyrimidin-4-yl]amino}-2-hydroxycyclopentyl]methyl sulfamate] | 84 | 7.00 to 8.00 |  |  |  |
| Cc1sc(C(=O)c2cncnc2N[C@@H]2C[C@H](COS(N)(=O)=O)[C@@H](O)C2)cc1Sc1cccc(Cl)c1 [I-143, [(1R,2S,4R)-4-{[5-({4-[(3-chlorophenyl)sulfanyl]-5-methyl-2-thienyl}carbonyl)pyrimidin-4-yl]amino}-2-hydroxycyclopentyl]methyl sulfamate] |  | > 8.00 |  |  | 94 |
| CCc1ccc2c(c1)[C@H](c1cc(C(=O)c3cncnc3N[C@@H]3C[C@H](COS(N)(=O)=O)[C@@H](O)C3)sc1C)OCC2 (mixture of isomers) [I-346, [(1R,2S,4R)-4-{[5-({4-[(1R)-7-ethyl-3,4-dihydro-1H-isochromen-1-yl]-5-methyl-2-thienyl}carbonyl)pyrimidin-4-yl]amino}-2-hydroxycyclopentyl]methyl sulfamate and [(1R,2S,4R)-4-{[5-({4-[(1S)-7-ethyl-3,4-dihydro-1H-isochromen-1-yl]-5-methyl-2-thienyl}carbonyl)pyrimidin-4-yl]amino}-2-hydroxycyclopentyl]methyl sulfamate] |  |  | 99 | < 10 |  |
| CN1Cc2ccc(Cl)cc2[C@@H]1c1cc(C(=O)c2cncnc2N[C@@H]2C[C@H](COS(N)(=O)=O)[C@@H](O)C2)sc1Cl (single isomer, unassigned) [I-284b, [(1R,2S,4R)-4-{[5-({5-chloro-4-[(1R)-6-chloro-2-methyl-2,3-dihydro-1H-isoindol-1-yl]-2-thienyl}carbonyl)pyrimidin-4-yl]amino}-2-hydroxycyclopentyl]methyl sulfamate or [(1R,2S,4R)-4-{[5-({5-chloro-4-[(1S)-6-chloro-2-methyl-2,3-dihydro-1H-isoindol-1-yl]-2-thienyl}carbonyl)pyrimidin-4-yl]amino}-2-hydroxycyclopentyl]methyl sulfamate] |  |  | 99 | < 10 |  |
| NS(=O)(=O)OC[C@H]1C[C@@H](Nc2ncncc2C(=O)c2cc(Cc3ccc(F)c(Cl)c3)cs2)C[C@@H]1O [I-61, {(1R,2S,4R)-4-[(5-{[4-(3-chloro-4-fluorobenzyl)-2-thienyl]carbonyl}pyrimidin-4-yl)amino]-2-hydroxycyclopentyl}methyl sulfamate] |  | > 8.00 |  |  | 98 |
